We go through five compounds from paper PMC3386472 (Journal of Medicinal Chemistry, 2012).

SMILES strings stand for the structures. “Also recorded” adds a separate entry of the source.

One assay deals with reserpine-treated rats. The assay can be described thus: Reversal of reserpine-induced hypolocomotion in rats. The following applies: 5 µmol/kg, sc; for P compared to reserpine control (Dunnett's analysis post one-way ANOVA): horizontal locomotor activity; for Reversal of reserpine-induced hypolocomotion (horizontal activity): reserpine 5 mg/kg sc 18 h before, monitored 6 h.
The target in another assay is human D3 receptor (Homo sapiens, UniProt P35462). The assay can be described thus: Stimulation of [35S]GTPγS binding, cloned human D3 receptor in CHO cells.
Assay [1] concerns MPTP- and lactacystin-lesioned animal models. The following applies: cited from earlier work.
The next assay has as its target human D2 receptor (Homo sapiens, UniProt P14416). The assay can be described thus: Stimulation of [35S]GTPγS binding, cloned human D2 receptor in CHO cells. The following applies: [35S]GTPγS functional assay, % Emax vs DA.

human D3 receptor, sequence (P35462 whole entry): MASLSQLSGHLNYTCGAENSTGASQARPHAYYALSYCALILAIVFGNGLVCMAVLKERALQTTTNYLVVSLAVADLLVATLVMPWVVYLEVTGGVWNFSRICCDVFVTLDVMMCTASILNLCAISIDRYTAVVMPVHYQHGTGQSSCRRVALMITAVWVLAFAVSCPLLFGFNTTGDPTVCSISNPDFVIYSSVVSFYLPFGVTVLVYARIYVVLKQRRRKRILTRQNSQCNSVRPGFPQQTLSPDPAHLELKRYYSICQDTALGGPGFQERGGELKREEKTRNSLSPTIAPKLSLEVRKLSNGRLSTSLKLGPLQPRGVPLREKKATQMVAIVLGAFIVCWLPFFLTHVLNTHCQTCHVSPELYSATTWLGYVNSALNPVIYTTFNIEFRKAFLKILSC
human D2 receptor, sequence (P14416 whole entry): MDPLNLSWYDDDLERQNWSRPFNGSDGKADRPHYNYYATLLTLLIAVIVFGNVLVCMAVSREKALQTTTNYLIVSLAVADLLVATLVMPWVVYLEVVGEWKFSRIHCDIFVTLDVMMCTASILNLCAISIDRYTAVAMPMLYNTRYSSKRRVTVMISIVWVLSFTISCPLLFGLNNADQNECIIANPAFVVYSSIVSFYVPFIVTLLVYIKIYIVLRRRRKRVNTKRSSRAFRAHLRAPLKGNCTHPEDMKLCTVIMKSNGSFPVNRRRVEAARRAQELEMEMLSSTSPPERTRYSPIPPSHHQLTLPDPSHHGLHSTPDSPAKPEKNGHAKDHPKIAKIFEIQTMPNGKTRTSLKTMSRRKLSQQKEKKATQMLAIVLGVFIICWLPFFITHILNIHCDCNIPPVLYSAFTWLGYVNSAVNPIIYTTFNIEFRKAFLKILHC

For `CCCN(CCN1CCN(c2ccc3[nH]ccc3c2)CC1)[C@H]1CCc2nc(N)sc2C1` [Compound (−)-19, (S)-N^6-{2-[4-(1H-Indol-5-yl)piperazin-1-yl]ethyl}-N^6-propyl-4,5,6,7-tetrahydro benzothiazole-2,6-diamine], in the assay on reserpine-treated rats, the “P compared to reserpine control (Dunnett's analysis post one-way ANOVA)” value is recorded as less than 0.01 and the “Reversal of reserpine-induced hypolocomotion (horizontal activity)” value is “significantly reversing akinesia; also recorded: significant, long-lasting reversal of hypolocomotion”.
Regarding `CCCN(CCN1CCN(c2nccc3ccccc23)CC1)[C@H]1CCc2nc(N)sc2C1` [Compound D-301], the maximal response (Emax) at human D3 receptor (CHO, read-out: hCHO-D3 % Emax) was determined as 102 ± 2%.
With `CCCN(CCC)CCc1cccc2c1CC(=O)N2.Cl` [ropinirole], in the assay with reserpine-treated rats, the “P compared to reserpine control (Dunnett's analysis post one-way ANOVA)” value is reported as less than 0.05 and the “Reversal of reserpine-induced hypolocomotion (horizontal activity)” value is on record as “significant locomotor activation”.
Regarding `CCCN(CCN1CCN(c2ccc(-c3ccccc3)cc2)CC1)[C@H]1CCc2nc(N)sc2C1` [Compound D-264], the “Neuroprotection in PD animal models” value in assay [1] (MPTP and lactacystin models) was “neuroprotective”. The “Behavioral syndromes in PD mouse models” value in assay [1] (acute MPTP and progressive lactacystin mouse models) is recorded as “significantly improved behavioral syndromes”.
For the compound `CCCN(CCN1CCN(C(=O)c2c[nH]c3ccccc23)CC1)[C@H]1CCc2nc(N)sc2C1` [Compound (−)-45, (S)-(4-{2-[(2-Amino-4,5,6,7-tetrahydrobenzothiazol-6-yl)propylamino]ethyl}piperazin-1-yl)-(1H-indol-3-yl)methanone], the “Agonist activity at D2 receptor (in words)” value at human D2 receptor is given as “full agonist activity”. For the same compound, the “Agonist activity at D3 receptor (in words)” value at human D3 receptor ([35S]GTPγS functional assay, % Emax vs DA) is given as “full agonist activity”.
